*: point of attachment. Biotin = O=C1N[C@H]2[C@H](CS[C@H]2CCCCC(=O)*)N1
How the values were obtained:
normal mouse serum = settings: 37° C.

Substance	cleaved bond (normal mouse serum; up to 6 h)	cleaved bond (normal mouse serum; up to 24 h)	other results
acetyl-NCVPhNLRGDLQVLADQKVCRDTKD-biotin [C2C18 Ph AD RDTKD DFBP]			cell surface half-life (internalization) (BxPC-3 cells): 11.93 min
Biotin-CAVPNLRGDLQVLAQKVCRTK-NH2 (cysteine pairing not given here) [C1C18 DFBP]	C18-arginine19, 2 h		
biotin-NCVPhNLRGDLQVLAQKVCRDTKAD-amide		Asn1-C2	

The next lines start with results.

cleaved bond (normal mouse serum; up to 6 h)	cleaved bond (normal mouse serum; up to 24 h)	Substance	other results
C18-arginine19, 2 h		Biotin-NCVPNLRGDLQVLAQKVCRTK-NH2 (cysteine pairing not given here)	
	Asn1-C2	Biotin-NCVPNLRGDLQVLAQKVCRDTKAD-NH2 (cysteine pairing not given here)	
C18-arginine19		Biotin-CAVPNLRGDLQVLAQKVCRTK-NH2 (cysteine pairing not given here)	

Source: US20240209034A1 (priority 2021, published 2024)
